In patent publication US20150105252A1, “SUBSTITUTED PYRAZOLES AS HERBICIDES” (E I DU PONT DE NEMOURS AND COMPANY, priority 2013, published 2015):

Tests used:
pigweed = test: Test C postemergence; type: in vivo, Amaranthus retroflexus; conditions: for Pigweed plant response rating: scale 0 to 100
Description: (§1) Seeds of plant species selected from blackgrass (Alopecurus myosuroides), ryegrass, Italian (Italian ryegrass, Lolium multiflorum), wheat (winter wheat, Triticum aestivum), galium (catchweed bedstraw, Galium aparine), corn (Zea mays), crabgrass, large (large crabgrass, Digitaria sanguinalis), foxtail, giant (giant foxtail, Setaria faberii), johnsongrass (Sorghum halepense), lambsquarters (Chenopodium album), morningglory (Ipomoea coccinea), nutsedge, yellow (yellow nutsedge, Cyperus esculentus), pigweed (redroot pigweed, Amaranthus retroflexus), ragweed (common ragweed, Ambrosia elation), soybean (Glycine max), barnyardgrass (Echinochloa crus-galli), oilseed rape (Brassica napus), waterhemp (common waterhemp, Amaranthus rudis), oat, wild (wild oat, Avena fatua), kochia (Kochia scoparia), Surinam grass (Brachiaria decumbens), foxtail, green (green foxtail, Setaria viridis), goosegrass (Eleusine indica), bromegrass, downy (downy bromegrass, Bromus tectorum), nightshade (eastern black nightshade, Solanum ptycanthum), cocklebur (common cocklebur, Xanthium strumarium), cupgrass, woolly (woolly cupgrass, Eriochloa villosa), bermudagrass (Cynodon dactylon), sunflower, (common oilseed sunflower, Helianthus annuus), Russian thistle (Salsola kali), and velvetleaf (Abutilon theophrasti) were planted into a blend of loam soil and sand and treated preemergence with test chemicals formulated in a non-phytotoxic solvent mixture which included a surfactant.
(§2) At the same time, plants selected from these crop and weed species and also chickweed (common chickweed, Stellaria media), canarygrass (littleseed canarygrass, Phalaris minor), and deadnettle (henbit deadnettle, Lamium amplexicaule), were planted in pots containing Redi-Earth® planting medium (Scotts Company, 14111 Scottslawn Road, Marysville, Ohio 43041) comprising spaghnum peat moss, vermiculite, wetting agent and starter nutrients and treated with postemergence applications of test chemicals formulated in the same manner. Plants ranged in height from 2 to 18 cm (1- to 4-leaf stage) for postemergence treatments. Treated plants and controls were maintained in a greenhouse for 13 to 15 days, after which time all species were compared to controls and visually evaluated. Plant response ratings, summarized in Table C, are based on a scale of 0 to 100 where 0 is no effect and 100 is complete control. A dash (-) response means no test result.

nutsedge, yellow [1] = test: Test C postemergence; type: in vivo, Cyperus esculentus; conditions: for Nutsedge, Yellow plant response rating: scale 0 to 100
Description: as §1, §2

foxtail, giant = test: Test C postemergence; type: in vivo, Setaria faberii; conditions: for Foxtail, Giant plant response rating: scale 0 to 100
Description: as §1, §2

johnsongrass = test: Test C postemergence; type: in vivo, Sorghum halepense; conditions: for Johnsongrass plant response rating: scale 0 to 100
Description: as §1, §2

morningglory = test: Test C postemergence; type: in vivo, Ipomoea coccinea; conditions: for Morningglory plant response rating: scale 0 to 100
Description: as §1, §2

ryegrass, Italian = test: Test C postemergence; type: in vivo, Lolium multiflorum; conditions: postemergence
Description: as §1, §2

oat, wild = test: Test C postemergence; type: in vivo, Avena fatua; conditions: for Oat, Wild plant response rating: scale 0 to 100
Description: as §1, §2

lambsquarters = test: Test C preemergence; type: in vivo, Chenopodium album
Description: as §1, §2

wheat = test: Test C preemergence; type: in vivo, Triticum aestivum
Description: as §1, §2

nutsedge, yellow [2] = test: Test C preemergence; type: in vivo, Cyperus esculentus
Description: as §1, §2

blackgrass = test: Test C preemergence; type: in vivo, Alopecurus myosuroides
Description: as §1, §2

[3] = postemergence, 250 g ai/ha, scale 0 to 100 (0 no effect, 100 complete control)
[4] = postemergence, 62 g ai/ha, scale 0 to 100, 0 no effect, 100 complete control
[5] = postemergence, 125 g ai/ha, scale 0 to 100, 0 no effect, 100 complete control
[6] = 250 g ai/ha, scale 0 to 100 (0 no effect, 100 complete control)
[7] = 62 g ai/ha, scale 0 to 100, 0 no effect, 100 complete control
[8] = 125 g ai/ha, scale 0 to 100, 0 no effect, 100 complete control
[9] = preemergence, 31 g ai/ha, scale 0 to 100 (0 no effect, 100 complete control), 13 to 15 days
[10] = preemergence, 62 g ai/ha, 13 to 15 days, scale 0 to 100, 0 = no effect, 100 = complete control
[11] = preemergence, 125 g ai/ha, scale 0 to 100, 0 is no effect, 100 is complete control

`CCCNC(=O)c1cc(CC)n(Cc2cccc(OC(F)(F)F)c2)n1` [Compound 27] was tested, and the “Pigweed plant response rating” value (pigweed; Postemergence, 31 g ai/ha) was 40, the “Plant response rating, Pigweed” value (pigweed; [3]) was 50 and the “Plant response rating, Pigweed” value (pigweed; [4]) was 40. For the same compound, the “Plant response rating, Pigweed” value (pigweed; [5]) was 40, the “Nutsedge, Yellow plant response rating” value (nutsedge, yellow [1]; Postemergence, 31 g ai/ha) was 0 and the “Plant response rating, Nutsedge, Yellow” value (nutsedge, yellow [1]; [3]) was 0. For the same compound, the “Plant response rating, Nutsedge, Yellow” value (nutsedge, yellow [1]; [4]) was 0, the “Plant response rating, Nutsedge, Yellow” value (nutsedge, yellow [1]; [5]) was 0 and the “Foxtail, Giant plant response rating” value (foxtail, giant; Postemergence, 31 g ai/ha) was 0. The “Plant response rating, Foxtail, Giant” value (foxtail, giant; [3]) was 20, the “Plant response rating, Foxtail, Giant” value (foxtail, giant; [4]) was 0 and the “Plant response rating, Foxtail, Giant” value (foxtail, giant; [5]) was 10. The “Johnsongrass plant response rating” value (johnsongrass; Postemergence, 31 g ai/ha) was 0, the “Plant response rating, Johnsongrass” value (johnsongrass; [3]) was 5 and the “Plant response rating, Johnsongrass” value (johnsongrass; [4]) was 0. For the same compound, the “Plant response rating, Johnsongrass” value (johnsongrass; [5]) was 5, the “Morningglory plant response rating” value (morningglory; Postemergence, 31 g ai/ha) was 5 and the “Plant response rating, Morningglory” value (morningglory; [3]) was 75. For the same compound, the “Plant response rating, Morningglory” value (morningglory; [4]) was 60, the “Plant response rating, Morningglory” value (morningglory; [5]) was 60 and the “Plant response rating, Ryegrass, Italian” value (ryegrass, Italian; [6]) was 15. The “Plant response rating, Ryegrass, Italian” value (ryegrass, Italian; [7]) was 5, the “Plant response rating, Ryegrass, Italian” value (ryegrass, Italian; [8]) was 10 and the “Oat, Wild plant response rating” value (oat, wild; Postemergence, 31 g ai/ha) was 10. The “Plant response rating, Oat, Wild” value (oat, wild; [3]) was 15, the “Plant response rating, Oat, Wild” value (oat, wild; [4]) was 10 and the “Plant response rating, Oat, Wild” value (oat, wild; [5]) was 15.
In the case of `CCONC(=O)c1cc(CC)n(Cc2cccc(OC(F)(F)F)c2)n1` [Compound 72], the “Pigweed plant response rating” value (pigweed; Postemergence, 31 g ai/ha) is reported as 45, the “Pigweed plant response rating” value (pigweed; postemergence, 62 g ai/ha) is reported as 45 and the “Plant response rating, Pigweed” value (pigweed; [3]) is reported as 65. The “Plant response rating, Pigweed” value (pigweed; [5]) was 65, the “Nutsedge, Yellow plant response rating” value (nutsedge, yellow [1]; Postemergence, 31 g ai/ha) was 0 and the “Nutsedge, Yellow plant response rating” value (nutsedge, yellow [1]; postemergence, 62 g ai/ha) was 0. For the same compound, the “Plant response rating, Nutsedge, Yellow” value (nutsedge, yellow [1]; [3]) was 0, the “Plant response rating, Nutsedge, Yellow” value (nutsedge, yellow [1]; [5]) was 0 and the “Plant response rating (scale of 0 to 100), Lambsquarters” value (lambsquarters; Preemergence, 250 g ai/ha) was 100. The “Lambsquarters plant response rating” value (lambsquarters; [9]) was 100, the “Plant response rating, Lambsquarters” value (lambsquarters; [10]) was 100 and the “Lambsquarters plant response rating” value (lambsquarters; [11]) was 100. The “Foxtail, Giant plant response rating” value (foxtail, giant; Postemergence, 31 g ai/ha) was 5, the “Foxtail, Giant plant response rating” value (foxtail, giant; postemergence, 62 g ai/ha) was 5 and the “Plant response rating, Foxtail, Giant” value (foxtail, giant; [3]) was 15. For the same compound, the “Plant response rating, Foxtail, Giant” value (foxtail, giant; [5]) was 5, the “Johnsongrass plant response rating” value (johnsongrass; Postemergence, 31 g ai/ha) was 0 and the “Johnsongrass plant response rating” value (johnsongrass; postemergence, 62 g ai/ha) was 0. The “Plant response rating, Johnsongrass” value (johnsongrass; [3]) was 0, the “Plant response rating, Johnsongrass” value (johnsongrass; [5]) was 0 and the “Plant response rating (scale of 0 to 100), Wheat” value (wheat; Preemergence, 250 g ai/ha) was 85. For the same compound, the “Wheat plant response rating” value (wheat; [9]) was 5, the “Plant response rating, Wheat” value (wheat; [10]) was 20 and the “Wheat plant response rating” value (wheat; [11]) was 50. For the same compound, the “Plant response rating (scale of 0 to 100), Nutsedge, Yellow” value (nutsedge, yellow [2]; Preemergence, 250 g ai/ha) was 85, the “Nutsedge, Yellow plant response rating” value (nutsedge, yellow [2]; [9]) was 0 and the “Plant response rating, Nutsedge, Yellow” value (nutsedge, yellow [2]; [10]) was 40. For the same compound, the “Nutsedge, Yellow plant response rating” value (nutsedge, yellow [2]; [11]) was 60, the “Morningglory plant response rating” value (morningglory; Postemergence, 31 g ai/ha) was 0 and the “Morningglory plant response rating” value (morningglory; postemergence, 62 g ai/ha) was 35. For the same compound, the “Plant response rating, Morningglory” value (morningglory; [3]) was 65, the “Plant response rating, Morningglory” value (morningglory; [5]) was 60 and the “Plant response rating (scale of 0 to 100), Blackgrass” value (blackgrass; Preemergence, 250 g ai/ha) was 85. The “Blackgrass plant response rating” value (blackgrass; [9]) was 45, the “Plant response rating, Blackgrass” value (blackgrass; [10]) was 80 and the “Blackgrass plant response rating” value (blackgrass; [11]) was 85. For the same compound, the “Ryegrass, Italian plant response rating” value (ryegrass, Italian; 62 g ai/ha, scale 0 to 100) was 10, the “Plant response rating, Ryegrass, Italian” value (ryegrass, Italian; [6]) was 40 and the “Plant response rating, Ryegrass, Italian” value (ryegrass, Italian; [8]) was 15. The “Oat, Wild plant response rating” value (oat, wild; Postemergence, 31 g ai/ha) was 5, the “Oat, Wild plant response rating” value (oat, wild; postemergence, 62 g ai/ha) was 5 and the “Plant response rating, Oat, Wild” value (oat, wild; [3]) was 35. For the same compound, the “Plant response rating, Oat, Wild” value (oat, wild; [5]) was 20.
With `CCc1cc(C(=O)NCC(F)(F)F)nn1Cc1cccc(OC(F)(F)F)c1` [Compound 20] the “Pigweed plant response rating” value (pigweed; Postemergence, 31 g ai/ha) was 60, the “Plant response rating, Pigweed” value (pigweed; [3]) was 80 and the “Plant response rating, Pigweed” value (pigweed; [4]) was 75. For the same compound, the “Plant response rating, Pigweed” value (pigweed; [5]) was 75, the “Nutsedge, Yellow plant response rating” value (nutsedge, yellow [1]; Postemergence, 31 g ai/ha) was 0 and the “Plant response rating, Nutsedge, Yellow” value (nutsedge, yellow [1]; [3]) was 0. For the same compound, the “Plant response rating, Nutsedge, Yellow” value (nutsedge, yellow [1]; [4]) was 0, the “Plant response rating, Nutsedge, Yellow” value (nutsedge, yellow [1]; [5]) was 0 and the “Foxtail, Giant plant response rating” value (foxtail, giant; Postemergence, 31 g ai/ha) was 10. For the same compound, the “Plant response rating, Foxtail, Giant” value (foxtail, giant; [3]) was 15, the “Plant response rating, Foxtail, Giant” value (foxtail, giant; [4]) was 10 and the “Plant response rating, Foxtail, Giant” value (foxtail, giant; [5]) was 10. For the same compound, the “Johnsongrass plant response rating” value (johnsongrass; Postemergence, 31 g ai/ha) was 0, the “Plant response rating, Johnsongrass” value (johnsongrass; [3]) was 10 and the “Plant response rating, Johnsongrass” value (johnsongrass; [4]) was 0. For the same compound, the “Plant response rating, Johnsongrass” value (johnsongrass; [5]) was 5, the “Morningglory plant response rating” value (morningglory; Postemergence, 31 g ai/ha) was 10 and the “Plant response rating, Morningglory” value (morningglory; [3]) was 70. The “Plant response rating, Morningglory” value (morningglory; [4]) was 25, the “Plant response rating, Morningglory” value (morningglory; [5]) was 60 and the “Plant response rating, Ryegrass, Italian” value (ryegrass, Italian; [6]) was 25. For the same compound, the “Plant response rating, Ryegrass, Italian” value (ryegrass, Italian; [7]) was 10, the “Plant response rating, Ryegrass, Italian” value (ryegrass, Italian; [8]) was 15 and the “Oat, Wild plant response rating” value (oat, wild; Postemergence, 31 g ai/ha) was 15. For the same compound, the “Plant response rating, Oat, Wild” value (oat, wild; [3]) was 20, the “Plant response rating, Oat, Wild” value (oat, wild; [4]) was 15 and the “Plant response rating, Oat, Wild” value (oat, wild; [5]) was 20.
